{
  "source": "patent US7001910B1",
  "about": "“Thiazolidinedione derivatives as antidiabetic agents” (Vita-Invest S.A., priority 1999, dated 2006)",
  "key": {"[1]": {"tested_on": "genetically diabetic C57 BL male db/db mice", "assay": "Plasma glucose reduction in genetically diabetic db/db mice after 5 days of oral treatment", "assay_type": "in vivo", "conditions": "Mus musculus, 120 h, 5 consecutive days, plasma glucose reduction vs basal level before treatment; for inhibition in vivo at 1 mg/kg: 1 mg/kg p.o.; for inhibition in vivo at 10 mg/kg: 10 mg/kg p.o.; for inhibition in vivo at 5 mg/kg: 5 mg/kg p.o.", "description": "The pharmacological effect of the compounds is assessed in genetically diabetic C57 BL male db/db 9–11 weeks old mice, as well as in control C57 BL db/+ animals of the same strain and age. […] In each experimental group, 8–10 animals are used, which are treated with different doses of the compounds: 1 mg/kg, 5 mg/kg, 10 mg/kg or 25 mg/kg orally during 5 consecutive days.\nIn the day 0 of the experiment, blood samples are collected in heparinized tubes by punction of the retroorbital vein. Plasma is separated and the levels of basal glucose and insulin are quantified.\nAfter concluding the treatments, blood samples of each animal are collected again and plasmatic post-treatment glucose and insulin levels are quantified.\nThe determination of glucose is carried out by means of an enzymatic method that converts glucose into glucose 6-phosphate, a reaction coupled with the reduction of nicotinamide-dinucleotide phosphate (NADP) to NADPH by the action of glucose-6-P-dehydrogenase. The NADPH reduces the iodonitrotetrazolium, which is quantified spectrophotometrically. The absorbency at 520 nm is proportional to the concentration of glucose, ref: Randox GI, 2623 (Bergmeyer H. U., Bernt E., Schmidt F. H., Stork H. In Methods of Enzymatic Analysis, Academic Press: London and New York 1974, p. 1196).\nThe results are expressed as the reduction percent with regard to the basal levels determined before the beginning of the treatment."}, "[2]": {"tested_on": "genetically diabetic C57 BL male db/db mice", "assay": "Plasma glucose reduction in genetically diabetic db/db mice after 5 days of oral treatment", "assay_type": "in vivo", "conditions": "Mus musculus, 120 h, 100 mg/kg p.o., 5 consecutive days, plasma glucose reduction vs basal level before treatment"}},
  "data": [
    {"compound": "CN(CCOc1ccc(CC2SC(=O)NC2=O)cc1)c1cc(Cl)nc(N)n1", "note": "(centres unmarked) [Example 3, 5-(4-{2-[(2-amino-6-chloropyrimidin-4-yl)-methyl-amino]-ethoxy}-benzyl)-thiazolidine-2,4-dione]", "values": [
      {"measurement": "inhibition in vivo at 1 mg/kg", "setting": "[1]", "value": 47, "unit": "%"}
    ]},
    {"compound": "COc1cc(N(C)CCOc2ccc(CC3SC(=O)NC3=O)cc2)nc(OC)n1", "note": "(centres unmarked) [Example 4, 5-(4-{2-{(2,6-Dimethoxypyrimidin-4-yl)-methyl-amino]-ethoxy}-benzyl)-thiazolidine-2,4-dione]", "values": [
      {"measurement": "inhibition in vivo at 1 mg/kg", "setting": "[1]", "value": 53, "unit": "%"}
    ]},
    {"compound": "CN(CCOc1ccc(CC2SC(=O)NC2=O)cc1)c1ncnc2nc[nH]c12", "note": "(centres unmarked) [Example 7, 5-(4-{2-[Methyl-(7H-purin-6-yl)-amino]-ethoxy}-benzyl)-thiazolidine-2,4-dione]", "values": [
      {"measurement": "inhibition in vivo at 10 mg/kg", "setting": "[1]", "value": 47, "unit": "%"}
    ]},
    {"compound": "CN(CCOc1ccc(CC2SC(=O)NC2=O)cc1)c1ncnc2c1ncn2C1OC(CO)C(O)C1O", "note": "(centres unmarked) [Example 11]", "values": [
      {"measurement": "inhibition in vivo at 10 mg/kg", "setting": "[1]", "value": 30, "unit": "%"}
    ]},
    {"compound": "CN(CCOc1ccc(CC2SC(=O)NC2=O)cc1)c1ncnc2c1ncn2C", "note": "(centres unmarked) [Example 12, 5-(4-{2-[Methyl-(9-methyl-9H-purin-6-yl)-amino]-ethoxy}-benzyl)-thiazolidine-2,4-dione]", "values": [
      {"measurement": "inhibition in vivo at 10 mg/kg", "setting": "[1]", "value": 25, "unit": "%"}
    ]},
    {"compound": "CN(CCOc1ccc(CC2SC(=O)NC2=O)cc1)c1cc(Cl)ncn1", "note": "(centres unmarked) [Example 14, 5-(4-{2-[(6-chloropyrimidin-4-yl)-methylamino]-ethoxy}-benzyl)-thiazolidine-2,4-dione]", "values": [
      {"measurement": "inhibition in vivo at 1 mg/kg", "setting": "[1]", "value": 51, "unit": "%"}
    ]},
    {"compound": "COc1cc(N(C)CCOc2ccc(CC3SC(=O)NC3=O)cc2)ncn1", "note": "(centres unmarked) [Example 17, 5-(4-{2-[(6-Methoxypyrimidin-4-yl)-methylamino]-ethoxy}-benzyl)-thiazolidine-2,4-dione]", "values": [
      {"measurement": "inhibition in vivo at 1 mg/kg", "setting": "[1]", "value": 48, "unit": "%"}
    ]},
    {"compound": "CN(CCOc1ccc(CC2SC(=O)NC2=O)cc1)c1ccncn1", "note": "(centres unmarked) [Example 20, 5-{4-[2-(Methylpyrimidin-4-yl-amino)ethoxy]benzyl}-thiazolidine-2,4-dione]", "values": [
      {"measurement": "inhibition in vivo at 5 mg/kg", "setting": "[1]", "value": 21, "unit": "%"}
    ]},
    {"compound": "CN(C)c1cc(N(C)CCOc2ccc(CC3SC(=O)NC3=O)cc2)ncn1", "note": "(centres unmarked) [Example 21, 5-(4-{2-[(6-Dimethylaminopyrimidin-4-yl)-methylamino]-ethoxy}-benzyl)-thiazolidine-2,4-dione]", "values": [
      {"measurement": "inhibition in vivo at 25 mg/kg", "setting": "[1]; 25 mg/kg p.o.", "value": 36, "unit": "%"}
    ]},
    {"compound": "CN(CCOc1ccc(CC2SC(=O)NC2=O)cc1)c1cc(O)ncn1", "note": "(centres unmarked) [Example 22, 5-(4-{2-[(6-Hydroxypyrimidin-4-yl)-methylamino]-ethoxy}-benzyl)-thiazolidine-2,4-dione]", "values": [
      {"measurement": "inhibition in vivo at 5 mg/kg", "setting": "[1]", "value": 22, "unit": "%"}
    ]},
    {"compound": "Cc1c(C)c2c(c(C)c1O)CCC(C)(COc1ccc(CC3SC(=O)NC3=O)cc1)O2", "note": "(centres unmarked) [Troglitazone]", "values": [
      {"measurement": "inhibition in vivo at 100 mg/kg", "setting": "[2]", "value": 38, "unit": "%"}
    ]}
  ]
}
